Consider five compounds from patent publication US6015805A, “17β-nitro-11β-arylisteroids and their derivatives having agonist or antagonist hormonal properties” (Research Triangle Research North Carolina, priority 1999, dated 2000).

This test addresses T1, progestin receptor (rPR) (Oryctolagus cuniculus, UniProt P06186).
T1 construct: hormone receptors for progestins and glucocorticoids from rabbits; from tissue; host or cells: rabbit
T1 sequence (P06186 1-930): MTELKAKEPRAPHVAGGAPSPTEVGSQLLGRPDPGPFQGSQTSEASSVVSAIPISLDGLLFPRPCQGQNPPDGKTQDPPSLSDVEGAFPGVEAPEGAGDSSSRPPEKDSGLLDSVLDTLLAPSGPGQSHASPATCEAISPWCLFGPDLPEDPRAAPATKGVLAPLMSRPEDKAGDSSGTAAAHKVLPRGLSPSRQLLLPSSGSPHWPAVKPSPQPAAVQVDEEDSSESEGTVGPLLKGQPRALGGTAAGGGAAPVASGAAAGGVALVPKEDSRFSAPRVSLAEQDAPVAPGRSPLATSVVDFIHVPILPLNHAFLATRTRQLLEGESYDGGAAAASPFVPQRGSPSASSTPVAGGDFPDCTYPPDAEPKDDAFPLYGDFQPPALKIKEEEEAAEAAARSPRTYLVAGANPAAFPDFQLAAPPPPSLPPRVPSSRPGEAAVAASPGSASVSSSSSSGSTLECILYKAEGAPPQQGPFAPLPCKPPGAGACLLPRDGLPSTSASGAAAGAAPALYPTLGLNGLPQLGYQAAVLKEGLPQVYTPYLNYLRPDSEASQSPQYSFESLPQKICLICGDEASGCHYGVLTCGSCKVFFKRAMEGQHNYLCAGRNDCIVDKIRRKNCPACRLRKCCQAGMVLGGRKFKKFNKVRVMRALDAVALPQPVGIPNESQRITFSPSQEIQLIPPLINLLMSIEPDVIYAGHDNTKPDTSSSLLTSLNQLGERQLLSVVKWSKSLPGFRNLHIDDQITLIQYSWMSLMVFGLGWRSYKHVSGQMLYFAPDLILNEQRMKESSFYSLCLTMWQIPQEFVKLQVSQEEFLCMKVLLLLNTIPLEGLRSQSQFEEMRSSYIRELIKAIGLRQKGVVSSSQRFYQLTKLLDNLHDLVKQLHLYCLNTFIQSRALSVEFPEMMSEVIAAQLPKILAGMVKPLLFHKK
Put plainly: Receptor binding (rabbit), progestin receptor. To be noted: for Ratio PR/GR: ratio of rPR to rGR relative affinities; for Relative Binding Affinity, rPR, Relative Affinity (Progesterone): relative to progesterone = 100, rabbit progestin receptor.

Molecules are shown by their SMILES.

Consider `CC(=O)c1ccc([C@H]2C[C@@]3(C)[C@@H](CC[C@]3(/C=C/CO)[N+](=O)[O-])[C@@H]3CCC4=CC(=O)CCC4=C32)cc1` [I 4-CH3 CO H O H CH=CHCH2 OH, 11β-(4-acetylphenyl)-17α-(E-3-hydroxy-1-propenyl)-17β-nitroestra-4,9-dien-3-one], for which the “Ratio PR/GR” value came to 6.5 and the “Relative Binding Affinity, rPR, Relative Affinity (Progesterone)” value (“Relative Binding Affinity, rPR” for short) is on record as 26.

On to `CC#C[C@]1([N+](=O)[O-])CC[C@H]2[C@@H]3CCC4=CC(=O)CCC4=C3[C@@H](c3ccc(C(C)=O)cc3)C[C@@]21C` [I 4-CH3 CO H O H --CC--CH3, 11β-(4-Acetylphenyl)-17β-nitro-17α-(1-propynyl)estra-4,9-dien-3-one], for which the “Ratio PR/GR” value is recorded as 7.7 and the “Relative Binding Affinity, rPR” value is 153.

In the case of `CC1=[N+]([O-])C2(CC1)CCC1C3CCC4=CC(=O)CCC4=C3C(c3ccc(N(C)C)cc3)CC12C` (stereo not drawn) [II 4-Me2 N H O H -- CH3, 3',4'-dihydro-11β-(4-(N,N-dimethylamino)phenyl)-5'-methyl-1'-oxo-spiro[estra-4,9-dien-17β,2'(2'H)-pyrrole]-3-one], the “Ratio PR/GR” value is recorded as 78.5 and the “Relative Binding Affinity, rPR” value is reported as 157. Under “in words”, the “separation of progestin and glucocorticoid receptor affinity” value was “excellent separation of progestin and glucocorticoid receptor affinity”.

For the compound `CN(C)c1ccc([C@H]2C[C@@]3(C)[C@@H](CC[C@]3(CCCO)[N+](=O)[O-])[C@@H]3CCC4=CC(=O)CCC4=C32)cc1` [I 4-Me2 N H O H --(CH2)3 OH, 11β-[4-(N,N-Dimethylamino)phenyl]-17α-(3-hydroxypropyl)-17β-nitroestra-4,9-dien-3-one], the “Ratio PR/GR” value came out at 2.3 and the “Relative Binding Affinity, rPR” value was found to be 170.

Consider `CC(=O)c1ccc([C@H]2C[C@@]3(C)[C@@H](CC[C@]3(CCCO)[N+](=O)[O-])[C@@H]3CCC4=CC(=O)CCC4=C32)cc1` [I 4-CH3 CO H O H --(CH2)3 OH, 11β-(4-Acetylphenyl)-17α-(3-hydroxypropyl)-17β-nitroestra-4,9-dien-3-one], for which the “Ratio PR/GR” value turned out to be 17.7 and the “Relative Binding Affinity, rPR” value came to 53.
